Measured values as given in paper PMC12631912, “A Multifunctional Molecular Probe for Multimodal Imaging‐Guided Potent Photothermal/Photodynamic Therapy of Endometriosis” (Advanced Science, 2025).

Test system: Ishikawa cells
Test: Cellular internalization of probes by flow cytometry
Assay type: cell-based
Details: in Figure 3g
Experimental: Furthermore, the cellular internalization of the probes was quantitatively evaluated using flow cytometry. […] After these incubation periods, the cells were washed three times with PBS, trypsinized, and collected. The harvested cells were then analyzed using an Attune NxT flow cytometer (Invitrogen, USA). The data obtained was analyzed utilizing NovoExpress 1.4.0 software (Agilent, USA).

For ICG‐lys‐DTPA@Gd [ILD], the “internalized probes by flow cytometry” value (C ICG = 2.5 µg mL^−1, 1 h incubation) was 61.98% and the “internalized probes by flow cytometry” value (C ICG = 2.5 µg mL^−1, 4 h incubation) was 93.22%.
